pIC50: −log10 of the molar value.
Biological target: T1, human CRF1 receptor (Homo sapiens, UniProt P34998)
T1 construct: expressed in transfected cells; host or cells: CHO cells (membrane fraction)
T1 sequence (P34998 24-415): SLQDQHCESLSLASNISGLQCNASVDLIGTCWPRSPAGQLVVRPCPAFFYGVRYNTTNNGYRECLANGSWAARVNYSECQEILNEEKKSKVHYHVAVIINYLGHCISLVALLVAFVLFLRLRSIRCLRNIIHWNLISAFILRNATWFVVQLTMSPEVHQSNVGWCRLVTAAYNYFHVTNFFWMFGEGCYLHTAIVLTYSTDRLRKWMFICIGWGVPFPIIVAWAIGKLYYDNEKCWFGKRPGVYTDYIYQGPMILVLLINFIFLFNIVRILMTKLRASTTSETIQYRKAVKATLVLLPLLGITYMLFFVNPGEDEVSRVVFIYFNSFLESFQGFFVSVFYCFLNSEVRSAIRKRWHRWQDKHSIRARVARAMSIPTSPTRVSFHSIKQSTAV
Test: Measurement of CRF Binding Inhibitory Rate (receptor binding experiment with 125I-CRF)
Settings: human CRF1 receptor expressing CHO cellular membrane fraction, 50 pM 125I-CRF, room temperature 1.5 hr, 0.05 nM to 10 μM of compound; read-out: IC50 values (CRF binding inhibition)

Compound	pIC50
CCN(CC)c1cccc2nc3n(c12)CCC(=O)NC3c1ccc(Cl)cc1Cl (stereo not drawn) [Example 487, 1-(2,4-Dichlorophenyl)-7-(diethylamino)-1,2,4,5-tetrahydro-3H-[1,4]diazepino[1,2-a]benzimidazol-3-one]	> 6.00
CCN(CC)c1cccc2nc3n(c12)CCC=C3c1ccc(Cl)cc1Cl [Example 492, 4-(2,4-Dichlorophenyl)-N,N-diethyl-1,2-dihydropyrido[1,2-a]benzimidazol-9-amine]	> 6.00
CCN(CC)c1cc(F)cc2nc3n(c12)CCCOC3c1ccc(Cl)cc1Cl (stereo not drawn) [Example 494, 1-(2,4-Dichlorophenyl)-N,N-diethyl-9-fluoro-4,5-dihydro-1H,3H-[1,4]oxazepino[4,3-a]benzimidazol-7-amine]	> 6.00
OC(c1ccc(Cl)c2nc3n(c12)CCCOC3c1ccc(Cl)cc1Cl)(C1CC1)C1CC1 (stereo not drawn) [Example 500, [10-Chloro-1-(2,4-dichlorophenyl)-4,5-dihydro-1H,3H-[1,4]oxazepino[4,3-a]benzimidazol-7-yl](dicyclopropyl)methanol]	> 6.00
CCN(CC)c1ccc(Cl)c2nc3n(c12)CCOC3c1ccc(Cl)cc1Cl (stereo not drawn) [Example 502, 9-Chloro-1-(2,4-dichlorophenyl)-N,N-diethyl-3,4-dihydro-1H-[1,4]oxazino[4,3-a]benzimidazol-6-amine]	> 6.00
CCN(CC)c1cccc2nc3n(c12)CCN=C3c1ccc(Cl)cc1Cl [Example 507, 1-(2,4-Dichlorophenyl)-N,N-diethyl-3,4-dihydropyrazino[1,2-a]benzimidazol-6-amine]	> 6.00

Tested on: not given
Test: not given
Settings: not given

Compound	melting point
CCC(OC(C)=O)c1ccc(Cl)c2nc3n(c12)CCCN3c1ccc(OC)nc1C (single isomer, unassigned; (+)) [Example 267, (+)-1-[9-Chloro-1-(6-methoxy-2-methylpyridin-3-yl)-1,2,3,4-tetrahydropyrimido[1,2-a]benzimidazol-6-yl]propyl acetate]	110 to 114 °C
CCC(O)c1ccc(Cl)c2nc3n(c12)CCCN3c1ccc(Cl)cc1Cl (single isomer, unassigned; (+)) [Example 439, (+)-1-[9-Chloro-1-(2,4-dichlorophenyl)-1,2,3,4-tetrahydropyrimido[1,2-a]benzimidazol-6-yl]propan-1-ol]	233 to 235 °C
CCC(O)c1ccc(Cl)c2nc3n(c12)CCCN3c1ccc(Cl)cc1Cl (single isomer, unassigned; (-)) [Example 438, (−)-1-[9-Chloro-1-(2,4-dichlorophenyl)-1,2,3,4-tetrahydropyrimido[1,2-a]benzimidazol-6-yl]propan-1-ol]	221 to 223 °C
CCN(CC)c1cccc2nc3n(c12)CCC(=O)N3c1ccc(Cl)cc1Cl [Example 19, 1-(2,4-Dichlorophenyl)-6-(diethylamino)-3,4-dihydropyrimido[1,2-a]benzimidazol-2(1H)-one]	113 to 114 °C
CCN(CC)c1cccc2nc3n(c12)CCCN3c1ccc(Cl)cc1Cl [Example 20, 1-(2,4-Dichlorophenyl)-N,N-diethyl-1,2,3,4-tetrahydropyrimido[1,2-a]benzimidazol-6-amine]	131 to 133 °C
CCN(CC)c1cccc2nc3n(c12)CC(CC(=O)OC)N3c1ccc(Cl)cc1Cl (stereo not drawn) [Example 72, Methyl [1-(2,4-dichlorophenyl)-5-(diethylamino)-2,3-dihydro-1H-imidazo[1,2-a]benzimidazol-2-yl]acetate]	137 to 138 °C
CCN(CC)c1cccc2nc3n(c12)CC(CC(=O)O)N3c1ccc(Cl)cc1Cl (stereo not drawn) [Example 73, [1-(2,4-Dichlorophenyl)-5-(diethylamino)-2,3-dihydro-1H-imidazo[1,2-a]benzimidazol-2-yl]acetic acid]	249 to 251 °C
NC(=O)c1cccc2nc3n(c12)CCCN3c1ccc(Cl)cc1Cl [Example 83, 1-(2,4-Dichlorophenyl)-1,2,3,4-tetrahydropyrimido[1,2-a]benzimidazole-6-carboxamide]	198 to 200 °C
N#Cc1cccc2nc3n(c12)CCCN3c1ccc(Cl)cc1Cl [Example 84, 1-(2,4-Dichlorophenyl)-1,2,3,4-tetrahydropyrimido[1,2-a]benzimidazole-6-carbonitrile]	170 to 171 °C
CN(C)C(=O)c1cccc2nc3n(c12)CCCN3c1ccc(Cl)cc1Cl [Example 86, 1-(2,4-Dichlorophenyl)-N,N-dimethyl-1,2,3,4-tetrahydropyrimido[1,2-a]benzimidazole-6-carboxamide]	212 to 213 °C
CN(C)Cc1cccc2nc3n(c12)CCCN3c1ccc(Cl)cc1Cl [Example 87, 1-[1-(2,4-Dichlorophenyl)-1,2,3,4-tetrahydropyrimido[1,2-a]benzimidazol-6-yl]-N,N-dimethylmethanamine]	158 to 159 °C
CCN(CC)C(=O)c1cccc2nc3n(c12)CCCN3c1ccc(Cl)cc1Cl [Example 88, 1-(2,4-Dichlorophenyl)-N,N-diethyl-1,2,3,4-tetrahydropyrimido[1,2-a]benzimidazole-6-carboxamide]	183 to 184 °C
CCN(CC)Cc1cccc2nc3n(c12)CCCN3c1ccc(Cl)cc1Cl [Example 89, N-{[1-(2,4-Dichlorophenyl)-1,2,3,4-tetrahydropyrimido[1,2-a]benzimidazol-6-yl]methyl}-N-ethylethanamine]	112 to 114 °C
O=C(c1cccc2nc3n(c12)CCCN3c1ccc(Cl)cc1Cl)N1CC(O)C1 [Example 90, 1-{[1-(2,4-Dichlorophenyl)-1,2,3,4-tetrahydropyrimido[1,2-a]benzimidazol-6-yl]carbonyl}azetidin-3-ol]	257 to 258 °C
OC1CN(Cc2cccc3nc4n(c23)CCCN4c2ccc(Cl)cc2Cl)C1 [Example 91, 1-{[1-(2,4-Dichlorophenyl)-1,2,3,4-tetrahydropyrimido[1,2-a]benzimidazol-6-yl]methyl}azetidin-3-ol]	240 to 241 °C
CCC(O)c1cccc2nc3n(c12)CCCN3c1ccc(Cl)cc1Cl (stereo not drawn) [Example 92, 1-[1-(2,4-Dichlorophenyl)-1,2,3,4-tetrahydropyrimido[1,2-a]benzimidazol-6-yl]propan-1-ol]	186 to 188 °C
OC(c1cccc2nc3n(c12)CCCN3c1ccc(Cl)cc1Cl)C1CC1 (stereo not drawn) [Example 95, Cyclopropyl[1-(2,4-dichlorophenyl)-1,2,3,4-tetrahydropyrimido[1,2-a]benzimidazol-6-yl]methanol]	208 to 209 °C
CCC(O)c1ccc(Cl)c2nc3n(c12)CCCN3c1ccc(Cl)cc1Cl (stereo not drawn) [Example 112, 1-[9-Chloro-1-(2,4-dichlorophenyl)-1,2,3,4-tetrahydropyrimido[1,2-a]benzimidazol-6-yl]propan-1-ol]	244 to 245 °C
COc1nc(C)c(N2CCCn3c2nc2c(Cl)ccc(C(NC(=O)C(F)F)C(F)(F)F)c23)c(C)n1 (stereo not drawn) [Example 190, N-{1-[9-Chloro-1-(2-methoxy-4,6-dimethylpyrimidin-5-yl)-1,2,3,4-tetrahydropyrimido[1,2-a]benzimidazol-6-yl]-2,2,2-trifluoroethyl}-2,2-difluoroacetamide]	155 to 156 °C
O=C1CCCN1c1ccc(Cl)c2nc3n(c12)CCCN3c1ccc(Cl)cc1Cl [Example 195, 1-[9-Chloro-1-(2,4-dichlorophenyl)-1,2,3,4-tetrahydropyrimido[1,2-a]benzimidazol-6-yl]pyrrolidin-2-one]	215 to 216 °C
CCC(=O)c1cccc2nc3n(c12)CCCN3c1ccc(Cl)cc1Cl [Example 198, 1-[1-(2,4-Dichlorophenyl)-1,2,3,4-tetrahydropyrimido[1,2-a]benzimidazol-6-yl]propan-1-one]	195 to 196 °C
O=C(c1cccc2nc3n(c12)CCCN3c1ccc(Cl)cc1Cl)C1CC1 [Example 199, Cyclopropyl[1-(2,4-dichlorophenyl)-1,2,3,4-tetrahydropyrimido[1,2-a]benzimidazol-6-yl]methanone]	189 to 190 °C
CCC(c1cccc2nc3n(c12)CCCN3c1ccc(Cl)cc1Cl)N(C)C (stereo not drawn) [Example 203, 1-[1-(2,4-Dichlorophenyl)-1,2,3,4-tetrahydropyrimido[1,2-a]benzimidazol-6-yl]-N,N-dimethylpropan-1-amine]	144 to 145 °C
CCC(C)Nc1cccc2nc3n(c12)CCCN3c1ccc(Cl)cc1Cl (stereo not drawn) [Example 207, 1-(2,4-Dichlorophenyl)-N-(1-methylpropyl)-1,2,3,4-tetrahydropyrimido[1,2-a]benzimidazol-6-amine]	180 to 181 °C
Cc1nc(O)nc(C)c1N1CCCn2c1nc1c(Cl)ccc(C(OC(F)F)C(F)(F)F)c12 (stereo not drawn) [Example 215, 5-{9-Chloro-6-[1-(difluoromethoxy)-2,2,2-trifluoroethyl]-3,4-dihydropyrimido[1,2-a]benzimidazol-1(2H)-yl}-4,6-dimethylpyrimidin-2-ol]	208 to 210 °C
CCC(CC)c1ccc(Cl)c2nc3n(c12)CCN3c1ccc(Cl)cc1C(N)=O [Example 223, 5-Chloro-2-[8-chloro-5-(1-ethylpropyl)-2,3-dihydro-1H-imidazo[1,2-a]benzimidazol-1-yl]benzamide]	> 300 °C
CCC(CC)c1ccc(Cl)c2nc3n(c12)CCN3C(=O)c1ccc(Cl)nc1 [Example 228, 8-Chloro-1-[(6-chloropyridin-3-yl)carbonyl]-5-(1-ethylpropyl)-2,3-dihydro-1H-imidazo[1,2-a]benzimidazole]	205 to 207 °C
